The target in this assay is T1, Coagulation factor XII (Homo sapiens, UniProt P00748).
T1 sequence (P00748 whole entry): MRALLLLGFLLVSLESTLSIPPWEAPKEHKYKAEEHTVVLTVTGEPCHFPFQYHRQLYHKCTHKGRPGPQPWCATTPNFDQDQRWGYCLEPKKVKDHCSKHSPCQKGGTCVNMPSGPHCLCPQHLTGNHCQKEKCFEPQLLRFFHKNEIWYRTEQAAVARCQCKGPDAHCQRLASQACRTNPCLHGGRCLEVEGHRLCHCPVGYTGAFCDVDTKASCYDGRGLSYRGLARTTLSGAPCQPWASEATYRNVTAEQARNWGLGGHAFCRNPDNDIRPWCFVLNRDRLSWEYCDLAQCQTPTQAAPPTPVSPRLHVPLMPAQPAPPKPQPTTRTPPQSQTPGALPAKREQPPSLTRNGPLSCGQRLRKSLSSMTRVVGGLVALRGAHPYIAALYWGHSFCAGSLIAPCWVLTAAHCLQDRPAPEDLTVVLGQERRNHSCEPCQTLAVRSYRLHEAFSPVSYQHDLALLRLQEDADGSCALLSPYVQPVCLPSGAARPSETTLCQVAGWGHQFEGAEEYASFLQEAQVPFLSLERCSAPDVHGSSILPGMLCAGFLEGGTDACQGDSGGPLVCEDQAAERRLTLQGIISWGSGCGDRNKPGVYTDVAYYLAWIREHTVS
The assay can be described thus: Factor XIIa assay: Factor XIIa activity determinations were made in 50 mM HEPES buffer containing 150 mM NaCl, 5 mM CaCl2, and 0.1% PEG 8000 (polyethylene glycol; JT Baker or Fisher Scientific) at pH 7.4. Determinations were made using purified human Factor XIIa at a final concentration of […] (Sekisui Diagnostics) and the synthetic substrate, n-Acetyl-Lys-Pro-Arg-AFC, TFA salt (Sigma # C6608) at a concentration of 100 μM.

Consider `C[N+](C)(C)CCCC[C@@H](NC1CCCCC1)C(=O)N1CC[C@@H](NC(=O)N2CCC3(CC2)CC3)[C@@H](C(=O)NCc2ccccc2)C1`, for which the IC50 (usually the concentration that gives 50% inhibition) came out at 5 nM.
To `O=C(NCc1cccs1)[C@H]1CN(C(=O)C(CC2CCNCC2)NC2CCCCC2)CC[C@H]1NC(=O)N1CCC2(CC1)CC2` (some centres not stated) belongs 82.9 nM.
